Earlier results as cited in US20050106735A1, “COMPOSITON FOR NON-TOXIC, NON-HAZARDOUS, AND ENVIRONMENTALLY FRIENDLY HUMIDITY-INDICATING AGENT AND ITS APPLICATION” (GP&E AMERICA, LLC, priority 2004, published 2005).

Assays:
Rat = settings: oral

Structure (SMILES) | Toxicity (ORL-RAT LD50) (Rat) [mg/kg] | Toxicity to aquatic organisms (aquatic organisms) | Concentration at which the substance may cause cancer by inhalation (Commission Directive 2004/73/EC) [%] | European Union carcinogen classification (Council Directive 67/548/EEC)
[Cl-].[Cl-].[Mg+2] [Magnesium Chloride] | 8100 | – | – | –
[Cl][Cu][Cl] [Copper Chloride] | 584 | – | – | –
[Cl-].[Cl-].[Zn+2] [Zinc Chloride] | 350 | very toxic to aquatic organisms | – | –
[Cl-].[Na+] [Sodium Chloride] | 3000 | – | – | –
[Cl][Co][Cl] [Cobalt Chloride] | 80 | – | ≥ 0.01 | category 2 carcinogen
